Drawing on ChEMBL document CHEMBL1126104, “Synthesis and antiviral activity of some new S-adenosyl-L-homocysteine derivatives” (1992), this text covers MIC for three compounds.

One experiment deals with Sindbis virus. As to the kind of experiment: Antiviral activity against sindbis virus in Vero cell culture lines. Type of experiment: functional.
Experiment [1] concerns Vesicular stomatitis virus. As to the kind of experiment: Antiviral activity against vesicular stomatitis virus (VSV) in HeLa cell culture lines,. The class given is functional.
The test system of a further experiment is Human respirovirus 3. Kind of experiment: Antiviral activity against parainfluenza virus type 3 in Vero cell culture lines. The class given is functional.
Experiment [2] has as its system Vesicular stomatitis virus. As to the kind of experiment: Antiviral activity against vesicular stomatitis virus (VSV) in primary rabbit kidney (PRK) / embryonic skin-muscle (E6SM) fibroblast culture lines. The class given is functional. The conditions noted are these: Muscle tissue.
For another experiment, the system named is Poliovirus 1. Kind of experiment: Antiviral activity against polio virus type 1 in HeLa cell culture lines. Type of experiment: functional. The following applies: Enterovirus C.
Another experiment deals with Semliki Forest virus. Kind of experiment: Antiviral activity against semliki forest virus (SFV) in Vero cell culture lines. Type of experiment: functional.
Another experiment relates to Vaccinia virus. As to the kind of experiment: Antiviral activity against vaccinia virus (VV) in primary rabbit kidney (PRK) / embryonic skin-muscle (E6SM) fibroblast culture lines. Type of experiment: functional. The conditions noted are these: Orthopoxvirus vaccinia, Muscle tissue.
For experiment [3], the system named is Mammalian orthoreovirus 1. As to the kind of experiment: Antiviral activity against reovirus type 1 in Vero cell culture lines. The class given is functional.
The next experiment concerns Human alphaherpesvirus 2. Kind of experiment: Antiviral activity against HSV-2(G) strain in primary rabbit kidney (PRK) / embryonic skin-muscle (E6SM) fibroblast culture lines. The class given is functional. The conditions noted are these: Human alphaherpesvirus 2, Muscle tissue.
In experiment [4] the test system is Coxsackievirus B4. Kind of experiment: Antiviral activity against coxsackie B4 virus in HeLa cell culture lines. The class given is functional. The following applies: Enterovirus B.
Experiment [5] concerns Coxsackievirus B4. Kind of experiment: Antiviral activity against coxsackie B4 in Vero cell culture lines. Type of experiment: functional. The following applies: Enterovirus B.
Another experiment relates to Human alphaherpesvirus 1. Kind of experiment: Antiviral activity against HSV-1(KOS) strain in primary rabbit kidney (PRK) / embryonic skin-muscle (E6SM) fibroblast culture lines. Type of experiment: functional. The following applies: Human alphaherpesvirus 1, Muscle tissue.
Experiment [6] relates to Human immunodeficiency virus 1. Kind of experiment: Antiviral activity against (HIV-1) in MT-4 cells Value in parentheses is inhibitory concentration for cell growth (MT-4). The class given is functional, MT4.

Structures are written as SMILES. ≈ marks a conversion by molar mass, not a printed value.

`Nc1ncnc2c1ncn2[C@@H]1O[C@H](CO)C[C@H]1O` [CORDYCEPIN]: the MIC was > 100 mg/L against Sindbis virus; > 100 mg/L in [1]; > 100 mg/L in the experiment on Human respirovirus 3; > 40 mg/L in experiment [2]; > 100 mg/L against Poliovirus 1; > 100 mg/L in the experiment with Semliki Forest virus. Moreover, the MIC in the experiment with Vaccinia virus was > 100 mg/L; in experiment [3] it was > 100 mg/L; against Human alphaherpesvirus 2 it was > 40 mg/L; against Coxsackievirus B4 [4], > 100 mg/L; in the experiment with Coxsackievirus B4 [5], > 100 mg/L; in the experiment on Human alphaherpesvirus 1, > 40 mg/L. In addition, in [6], the MIC is > 4 mg/L.

For `Nc1ncnc2c1ncn2[C@H]1C[C@H](O)[C@@H](CO)O1` [DEOXYADENOSINE], the MIC (against Sindbis virus; in experiment [1]; with Human respirovirus 3; in experiment [2]; against Poliovirus 1; in the experiment with Semliki Forest virus) was > 200 mg/L throughout. The MIC against Vaccinia virus is 150 mg/L (≈ 597 µM); in experiment [3], > 200 mg/L; in the experiment on Human alphaherpesvirus 2, 100 mg/L (≈ 398 µM); against Coxsackievirus B4 [4], > 200 mg/L; against Coxsackievirus B4 [5], > 200 mg/L; against Human alphaherpesvirus 1 it was > 150 mg/L. Moreover, in [6], the MIC is > 20 mg/L.

On to `NC(=O)c1ncn([C@@H]2O[C@H](CO)[C@@H](O)[C@H]2O)n1` [RIBAVIRIN], for which the MIC in the experiment with Sindbis virus was 200 mg/L (≈ 819 µM); in experiment [1], 20 mg/L (≈ 81.9 µM); with Human respirovirus 3 it was 70 mg/L (≈ 287 µM); in experiment [2] it was 50 mg/L (≈ 205 µM); against Poliovirus 1, 70 mg/L (≈ 287 µM); with Semliki Forest virus, 200 mg/L (≈ 819 µM). Besides, the MIC is 30 mg/L (≈ 123 µM) in the experiment on Vaccinia virus; 40 mg/L (≈ 164 µM) in experiment [3]; > 400 mg/L with Human alphaherpesvirus 2; 40 mg/L (≈ 164 µM) against Coxsackievirus B4 [4]; > 70 mg/L against Coxsackievirus B4 [5]; > 400 mg/L against Human alphaherpesvirus 1. The MIC in [6] was > 20 mg/L.
